Laboratory results from paper PMC6412019, “Discovery of NV-5138, the first selective Brain mTORC1 activator” (Scientific Reports, 2019).
“Also recorded” adds a separate entry of the source.

What was measured:
[1] = test system: mTORC1; test: mTORC1 activation in rat brain after oral dosing (phosphorylated S6 S240/244 immunoblot); format: in vivo; conditions: for mTORC1 activation in brain (pS6 increase): 1 h after single oral dose, NV-5138 160 mg/kg, leucine 500 mg/kg; for increase in S240/244 pS6 versus vehicle: synaptoneurosomes from pre-frontal cortex
Source text: Given the favorable PK properties of NV-5138, we wished to determine whether oral administration of NV-5138 could activate mTORC1 in the brain and other organs of ad libitum fed rats using the mTORC1 downstream substrate phosphorylated S6 (^S240/244pS6) as a surrogate PD parameter for the activation status of the complex.
(§1) After compound administration, animals were sacrificed by decapitation using a guillotine, immediately Specific regions of the brain were quickly microdissected, tissues collected, and flash frozen in liquid nitrogen. Peripheral tissues and all brain were homogenized using MP homogenizer in Lysis Buffer (Cell lysis buffer: 1% Triton X-100, 50 mM HEPES pH 7.4, 100 mM NaCl, 2 mM EDTA, 10 mM Beta-glycerophosphate, 10 mM Sodium pyrophosphate, and 1 protease inhibitor) at 4 °C. Synaptic proteins and mTORC1 analyses in each brain region were conducted on crude synaptoneurosome preparations as previously described. Equal amounts of total protein from each sample were denatured and, resolved by SDS-PAGE. Membranes were imaged using the LI-COR imaging system. Proteins levels are normalized to tubulin or GAPDH levels and further normalized to vehicle treated rats for each tissue. Antibodies used are listed in Supplementary Information.

[2] = test system: mTORC1; test: mTORC1 activation in rat peripheral tissues after oral dosing (phosphorylated S6 S240/244 immunoblot); format: in vivo; conditions: 1 h after single oral dose; NV-5138 160 mg/kg, leucine 500 mg/kg
Description: as §1

[3] = molecular target: T1, BCAT1 (Homo sapiens, UniProt P54687); test: BCAT enzymatic assay (substrate test), BCAT1; format: biochemical; conditions: NADH oxidation at 340 nm; tested up to 1.5 mM
T1 construct: purchased OriGene TP319229
T1 sequence (P54687 1-386): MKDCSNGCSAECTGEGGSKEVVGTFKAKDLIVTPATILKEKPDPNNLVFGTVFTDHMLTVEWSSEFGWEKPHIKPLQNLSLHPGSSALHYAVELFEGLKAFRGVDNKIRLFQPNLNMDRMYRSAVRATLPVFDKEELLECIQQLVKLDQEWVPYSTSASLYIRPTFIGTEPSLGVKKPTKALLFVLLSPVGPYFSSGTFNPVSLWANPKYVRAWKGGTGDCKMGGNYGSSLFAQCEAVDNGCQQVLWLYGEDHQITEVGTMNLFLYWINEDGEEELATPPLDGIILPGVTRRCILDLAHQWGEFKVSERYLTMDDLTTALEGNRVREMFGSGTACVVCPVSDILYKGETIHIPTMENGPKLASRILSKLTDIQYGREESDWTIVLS
Description: BCAT exists in two isoforms, mitochondrial BCAT2 which is ubiquitously expressed, and cytosolic BCAT1, which is predominantly expressed in embryonic tissues and the adult brain. To determine whether NV-5138 is a substrate for BCAT isoforms, we established an in vitro enzymatic assay using purified BCAT1 and BCAT2 and performed the assay in the forward direction as described. […] The disappearance of absorbance at 340 nm due to NADH oxidation is measured continuously over time.
The assay buffer was dispensed into a 96-well plate and brought up to 37 °C for 10 min before adding BCAT1 or BCAT2 (72 ng) in 0.1 M potassium phosphate buffer. Absorbance at 340 nm was then read every minute for 30 min at RT using an Envision plate reader. Source of each reagents used can be found in Supplementary Information.

[4] = 160 mg/kg PO, 1 h, synaptoneurosomes

Row | Structure (SMILES) | mTORC1 activation in brain (pS6 increase) ([1]; ad libitum fed rats) | mTORC1 activation in kidney, heart, tibialis anterior muscle, testes, epididymal fat [2] | mTORC1 activation in liver [2] | mTORC1 activation in lung, spleen, gastrocnemius muscle, eye, thymus [2] | transamination by BCAT1 [3] | mTORC1 activation in cerebellum [1, 4] | mTORC1 activation in striatum, hippocampus, neocortex [1, 4] | time of peak mTORC1 activation in brain ([1]; single 160 mg/kg PO) | time until mTORC1 activation back to baseline/vehicle levels ([1]; single 160 mg/kg PO) | increase in S240/244 pS6 versus vehicle ([1]; 1 h after 80 mg/kg PO) | increase in S240/244 pS6 versus vehicle ([1]; 1 h after 160 mg/kg PO, ad libitum fed rats)
1 | CC(C)C[C@H](N)C(=O)O [Leucine, L-leucine, reference compound] | no activation | significant activation | significant activation | little to no activation | transaminated by BCAT1 and BCAT2 |  |  |  |  |  | 
2 | CC(C)(C[C@H](N)C(=O)O)C(F)F [NV-5138, (S)-2-amino-5,5-difluoro-4,4-dimethylpentanoic acid] | ~ 2 fold | significant activation | trend | little to no activation | no decrease in absorption at 340 nm; also recorded: did not observe any transamination | but not the cerebellum | significant activation | ~ 3 h | ≤ 7 h | trending increase | ~ 2 fold
